Several values for one entry are separate records, joined by “and”; a condition that tells them apart may be missing. Equal entries are not always repeated.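 These data come from cells grown in 96-well plates and exposed to compound for 48 hours at five concentrations. Here, GI50 denotes the concentration required for 50% inhibition of growth. The concentration for full growth arrest is given as TGI.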

Some test systems named below: A498 renal; PC-3 prostate; SW-620 colon; CAKI-1 renal; OVCAR-5 ovarian; OVCAR-3 ovarian; IGROV1 ovarian; SK-MEL-28 melanoma; SF-268 CNS; MCF7 breast.
What all share (assay): NCI anticancer screen, dose series, 48 h

As for `c1ccc(Nn2c(CCCCCCCCc3nnc(COc4ccccc4)n3Nc3ccccc3)nnc2COc2ccccc2)cc1`, the GI50 in the assay on A498 renal was 37.6 µM; in the assay on PC-3 prostate, 8.32 µM and 23.9 µM; in the assay on SW-620 colon it was 9.55 µM and 11.8 µM; in the assay on CAKI-1 renal, 5.11 µM and 2.73 µM; in the assay with OVCAR-5 ovarian, 8.56 µM and 10.2 µM; in the assay with OVCAR-3 ovarian, 16.5 µM and 41.2 µM. Also, the GI50 in the assay on IGROV1 ovarian is 17.7 µM and 46 µM; in the assay with SK-MEL-28 melanoma it was 22.9 µM and 57.1 µM; in the assay on SF-268 CNS, 23.5 µM and 70.9 µM; with MCF7 breast, 18.3 µM. Moreover, the TGI in the assay on A498 renal is above 300 µM; in the assay with PC-3 prostate, above 300 µM; with SW-620 colon, above 300 µM; in the assay with CAKI-1 renal, 59.1 µM and 34.8 µM; in the assay with OVCAR-5 ovarian it was above 300 µM; with OVCAR-3 ovarian it was above 300 µM. In addition, the TGI in the assay with IGROV1 ovarian, in the assay with SK-MEL-28 melanoma, in the assay on SF-268 CNS and with MCF7 breast was above 300 µM throughout.

As to `Oc1ccc2ccccc2c1C1NN=C(c2ccccc2)S1` (stereo not given), the GI50 is 1.34 µM with A498 renal; 0.645 µM with PC-3 prostate; 0.806 µM with SW-620 colon; 0.339 µM in the assay with CAKI-1 renal; 1.95 µM with OVCAR-5 ovarian; 0.443 µM in the assay with OVCAR-3 ovarian. The GI50 with IGROV1 ovarian was 0.485 µM; in the assay on SK-MEL-28 melanoma it was 0.799 µM; with SF-268 CNS, 0.418 µM; with MCF7 breast, 0.426 µM. In addition, the TGI in the assay on A498 renal is 14.1 µM; with PC-3 prostate, above 100 µM; in the assay with SW-620 colon, above 100 µM; with CAKI-1 renal, 17.8 µM; in the assay with OVCAR-5 ovarian, above 77.5 µM; with OVCAR-3 ovarian it was 11.8 µM. Besides, the TGI in the assay on IGROV1 ovarian was determined as 30.3 µM; in the assay on SK-MEL-28 melanoma, 97.8 µM; with SF-268 CNS it was 29.1 µM; in the assay with MCF7 breast, 21.2 µM.

Take `COc1ccc2c(c1)c1nc3cc(C)c(C)cc3nc1n2CCN(C)C`: the GI50 with A498 renal was 1.25 µM; in the assay with PC-3 prostate it was 1.04 µM; in the assay with SW-620 colon, 0.405 µM; in the assay on CAKI-1 renal, 0.632 µM; in the assay with OVCAR-5 ovarian, 0.953 µM; in the assay with OVCAR-3 ovarian it was 1.13 µM. Further, the GI50 in the assay with IGROV1 ovarian is 0.464 µM; in the assay on SK-MEL-28 melanoma, 1.65 µM; in the assay with SF-268 CNS, 1.42 µM; with MCF7 breast, 0.333 µM. The TGI in the assay with A498 renal came to 2.58 µM; with PC-3 prostate it was 2.48 µM; in the assay with SW-620 colon, 1.73 µM; in the assay on CAKI-1 renal, 2.1 µM; in the assay with OVCAR-5 ovarian, 2.3 µM; in the assay on OVCAR-3 ovarian, 2.55 µM. Also, the TGI with IGROV1 ovarian is 1.97 µM; in the assay on SK-MEL-28 melanoma it was 3.29 µM; with SF-268 CNS, 3.57 µM; with MCF7 breast it was 1.42 µM.

On to `CC(=O)OC1CC[C@@]2(C)C(CC[C@]3(C)C2CC=C2[C@@H]4CC(C)(C)CCC4(C)CCC23C)[C@@]1(C)C(=O)O` (stereo not given in full), for which the TGI with A498 renal was 39.3 µM; with PC-3 prostate it was 23.1 µM; in the assay on SW-620 colon, 40.8 µM; with CAKI-1 renal, 38.5 µM; in the assay on OVCAR-5 ovarian it was 47.5 µM; in the assay with OVCAR-3 ovarian it was 37.7 µM. Further, the TGI in the assay with IGROV1 ovarian was 38.6 µM; in the assay with SK-MEL-28 melanoma it was 46.5 µM; with SF-268 CNS, 46.7 µM; in the assay with MCF7 breast, 40.1 µM.

Consider `N#Cc1ccc(C2C3=C(CCCC3=O)OC3=C2C(=O)c2ccccc2C3=O)cc1` (stereo not given), for which the GI50 was 13.9 µM in the assay with A498 renal; 2.17 µM in the assay with PC-3 prostate; 2.21 µM in the assay with SW-620 colon; 1.88 µM in the assay with CAKI-1 renal; 2.09 µM in the assay on OVCAR-5 ovarian; 0.27 µM with OVCAR-3 ovarian. Also, the GI50 in the assay on IGROV1 ovarian is 1.45 µM; in the assay with SK-MEL-28 melanoma, 1.82 µM; in the assay on SF-268 CNS it was 1.97 µM; in the assay with MCF7 breast it was 0.664 µM. In addition, the TGI in the assay on A498 renal was determined as 27 µM; in the assay on PC-3 prostate it was 12.2 µM; with SW-620 colon, 5.69 µM; in the assay on CAKI-1 renal it was 3.93 µM; in the assay with OVCAR-5 ovarian it was 4.23 µM; in the assay with OVCAR-3 ovarian it was 0.711 µM. The TGI amounted to 3.46 µM in the assay on IGROV1 ovarian, 3.3 µM in the assay with SK-MEL-28 melanoma, 5.04 µM in the assay with SF-268 CNS and 2.65 µM in the assay with MCF7 breast.

As to `CC(C)[NH-].CC(C)[NH-].O.O.[Cl][Pt+2][Cl]`, the GI50 is 150 µM with A498 renal; 90.8 µM in the assay on PC-3 prostate; 23.1 µM with SW-620 colon; 31.3 µM in the assay on CAKI-1 renal; 51.1 µM in the assay with OVCAR-5 ovarian; 21.1 µM in the assay on OVCAR-3 ovarian. In addition, the GI50 in the assay with IGROV1 ovarian is 33.4 µM; in the assay on SK-MEL-28 melanoma, 46.8 µM; in the assay on SF-268 CNS, 38.1 µM; in the assay with MCF7 breast, 19.4 µM. The TGI amounted to 358 µM in the assay on A498 renal; 298 µM in the assay with PC-3 prostate; 137 µM in the assay with SW-620 colon; 124 µM with CAKI-1 renal; 145 µM in the assay on OVCAR-5 ovarian; 59.1 µM in the assay with OVCAR-3 ovarian. Moreover, the TGI with IGROV1 ovarian was determined as 132 µM; in the assay with SK-MEL-28 melanoma, 197 µM; in the assay with SF-268 CNS, 231 µM; in the assay on MCF7 breast, 102 µM.

Regarding `Clc1ccc(C(c2ccc(Cl)cc2)N2CCNCC2)cc1`, the TGI with A498 renal was determined as 4.2 µM; in the assay on PC-3 prostate, 7.15 µM; in the assay with SW-620 colon, 4.96 µM; with CAKI-1 renal, 17.4 µM; in the assay on OVCAR-5 ovarian it was 18.3 µM; in the assay on OVCAR-3 ovarian, 4.13 µM. For the same molecule, the TGI is 3.17 µM in the assay on IGROV1 ovarian, 3.45 µM in the assay on SK-MEL-28 melanoma, 19.7 µM with SF-268 CNS and 3.86 µM with MCF7 breast.

Take `N#C/C(=C\Nc1ccccn1)C(=O)c1ccco1`: the TGI with A498 renal, in the assay on PC-3 prostate, in the assay with SW-620 colon, with CAKI-1 renal, in the assay with OVCAR-5 ovarian and in the assay with OVCAR-3 ovarian was above 100 µM throughout. Moreover, the TGI in the assay on IGROV1 ovarian, in the assay on SK-MEL-28 melanoma, with SF-268 CNS and in the assay with MCF7 breast was above 100 µM throughout.

For the molecule `COc1cc2c(cc1OC)-c1ccc3cc4c(cc3c1N(CCN(C)C)C2)OCO4`, the GI50 in the assay with A498 renal was 0.723 µM; in the assay on PC-3 prostate it was 0.411 µM; in the assay with SW-620 colon it was 0.522 µM; with CAKI-1 renal, 0.596 µM; with OVCAR-5 ovarian, 1.53 µM; in the assay with OVCAR-3 ovarian, 0.593 µM. Moreover, the GI50 with IGROV1 ovarian is 0.943 µM; in the assay with SK-MEL-28 melanoma it was 3.04 µM; in the assay on SF-268 CNS, 0.214 µM; in the assay on MCF7 breast, 0.122 µM. The TGI was 2.53 µM with A498 renal; 6.06 µM in the assay on PC-3 prostate; 2.58 µM with SW-620 colon; 11.4 µM in the assay with CAKI-1 renal; 5.23 µM in the assay on OVCAR-5 ovarian; 2.28 µM in the assay with OVCAR-3 ovarian. Besides, the TGI worked out at 3.25 µM in the assay on IGROV1 ovarian, 17.3 µM in the assay with SK-MEL-28 melanoma, 2.41 µM with SF-268 CNS and 5.98 µM in the assay on MCF7 breast.

Turning to `C[C@@H](NC(=O)[C@@H](CC(=O)N1CCC(N2CCCCC2)CC1)N1C(=O)[C@@H](N2C(=O)OC[C@@H]2c2ccccc2)[C@H]1/C=C/c1cccc(Cl)c1)c1ccccc1`, the GI50 is 13.2 µM with A498 renal; 5.37 µM in the assay with PC-3 prostate; 2.06 µM in the assay with SW-620 colon; 1.89 µM with CAKI-1 renal; 5.78 µM with OVCAR-5 ovarian; 1.99 µM in the assay with OVCAR-3 ovarian. Moreover, the GI50 is 4.62 µM in the assay on IGROV1 ovarian, 1.8 µM with SK-MEL-28 melanoma, 2.31 µM in the assay on SF-268 CNS and 2.04 µM with MCF7 breast. The TGI with A498 renal was 27.7 µM; in the assay on PC-3 prostate, 18.9 µM; in the assay with SW-620 colon, 4.7 µM; in the assay with CAKI-1 renal, 4.17 µM; with OVCAR-5 ovarian, 20.9 µM; with OVCAR-3 ovarian, 4.49 µM. Further, the TGI with IGROV1 ovarian amounted to 19.2 µM; in the assay on SK-MEL-28 melanoma, 3.63 µM; in the assay on SF-268 CNS, 7.21 µM; in the assay on MCF7 breast, 5.36 µM.

Turning to `COc1cc(-c2csc(NC(=O)Nc3cc(C(F)(F)F)cc(C(F)(F)F)c3)n2)cc(OC)c1OC`, the GI50 in the assay on A498 renal is 1.11 µM; in the assay with PC-3 prostate, 1 µM; in the assay on SW-620 colon, 3.21 µM; in the assay with CAKI-1 renal, 2.88 µM; in the assay with OVCAR-5 ovarian it was 3.29 µM; in the assay on OVCAR-3 ovarian it was 2.39 µM. Besides, the GI50 is 4.25 µM in the assay with IGROV1 ovarian, 3.02 µM in the assay on SK-MEL-28 melanoma, 3.64 µM with SF-268 CNS and 2.41 µM in the assay with MCF7 breast. Besides, the TGI with A498 renal was found to be 5.08 µM; in the assay on PC-3 prostate it was 7.55 µM; with SW-620 colon, 14.6 µM; with CAKI-1 renal it was 12.1 µM; in the assay with OVCAR-5 ovarian, 14 µM; with OVCAR-3 ovarian, 10.6 µM. Also, the TGI with IGROV1 ovarian was 18.1 µM; with SK-MEL-28 melanoma, 12.6 µM; in the assay with SF-268 CNS, 15.7 µM; in the assay with MCF7 breast, 11.8 µM.

For the molecule `COc1ccc([I+]c2ccccc2)cc1`, the GI50 with A498 renal is 1.9 µM; in the assay with PC-3 prostate, 9.07 µM; in the assay with SW-620 colon it was 3.37 µM; in the assay on CAKI-1 renal, 12.5 µM; in the assay on OVCAR-5 ovarian, above 100 µM; in the assay on OVCAR-3 ovarian, 8.86 µM. The GI50 with IGROV1 ovarian is 8.99 µM; in the assay on SK-MEL-28 melanoma it was 25.9 µM; with SF-268 CNS it was 6.3 µM; in the assay with MCF7 breast, 5.69 µM. Also, the TGI in the assay with A498 renal is above 93.2 µM; in the assay with PC-3 prostate, above 100 µM; in the assay on SW-620 colon it was above 100 µM; in the assay on CAKI-1 renal, above 100 µM; in the assay with OVCAR-5 ovarian, above 100 µM; in the assay on OVCAR-3 ovarian, above 100 µM. Further, the TGI in the assay with IGROV1 ovarian, in the assay with SK-MEL-28 melanoma, in the assay with SF-268 CNS and with MCF7 breast was above 100 µM throughout.

The record behind these values is PubChem BioAssay (NCI).
